Measured values as given in US11149036B2, “3-(1H-pyrazol-4-yl)pyridine allosteric modulators of the M4 muscarinic acetylcholine receptor” (Merck Sharp & Dohme Corp., priority 2017, dated 2021).

biological target: T1, human M4 muscarinic acetylcholine receptor (Homo sapiens, UniProt P08173); experiment: human FLIPR-based M4 PAM assay (CHO-K1 cells with human M4 receptor and Gaqi5, calcium dye fluorescence); type: cell-based; conditions: inflection point (IP) of dose response curve, acetylcholine added at 20% of maximum response, read-out: M4 FLIPPR Hu IP
T1 construct: expressed in transfected cells; host or cells: CHO-K1
T1 sequence (P08173 1-479): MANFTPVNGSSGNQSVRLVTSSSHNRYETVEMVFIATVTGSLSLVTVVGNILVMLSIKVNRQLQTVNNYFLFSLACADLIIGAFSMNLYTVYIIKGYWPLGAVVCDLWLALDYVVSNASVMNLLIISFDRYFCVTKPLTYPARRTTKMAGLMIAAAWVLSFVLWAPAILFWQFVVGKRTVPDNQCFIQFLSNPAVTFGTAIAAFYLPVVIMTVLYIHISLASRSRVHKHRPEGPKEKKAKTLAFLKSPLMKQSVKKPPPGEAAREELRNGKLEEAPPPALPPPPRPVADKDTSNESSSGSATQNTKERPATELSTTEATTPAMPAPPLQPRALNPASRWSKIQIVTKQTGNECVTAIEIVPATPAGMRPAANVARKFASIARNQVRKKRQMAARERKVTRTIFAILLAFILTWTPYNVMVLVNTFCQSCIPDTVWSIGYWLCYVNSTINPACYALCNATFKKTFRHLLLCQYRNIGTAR
Procedure: (§1) In a typical experiment the M4 muscarinic acetylcholine receptor modulating activity of the compounds of the present invention was determined in accordance with the following experimental method. CHO-K1 cells stably transfected with human M4 receptor and chimeric G-protein Gaqi5 (Coward P, et al., Analytical Biochemistry, 270:242-248 (1999)) are thawed from liquid N2 storage, resuspended in growth medium, plated in black, clear bottom 384 well plates, and incubated 16-20 hours at 37° C., 5% CO2. On the day of assay, growth medium is removed, the cells are washed 2 times with wash buffer, and cells are incubated in dye loading buffer at 37° C., 5% CO2 for ˜1 hour. Following dye loading the cell plates are placed in a FLIPR Tetra instrument and while monitoring dye fluorescence (excitation 470-495 […]), 10 uL of test substance at increasing concentrations is added, and fluorescence values are recorded for 4 min. Next, 10 uL of acetylcholine is added (final concentration calculated so as to achieve 20% of the maximum acetycholine response), and the fluorescence reading is continued for 3.5 min. In some cases, a third addition of acetylcholine (final concentration calculated to achieve 70% of the maximal acetylcholine response) is performed. The resulting dose response curves are fit to a 4 parameter logistic equation and the final result is determined as the inflection point (IP) of the curve
as §1, with “CHO-K1” for “In a typical experiment the M4 muscarinic acetylcholine receptor modulating activity of the compounds of the present invention was determined in accordance with the following experimental method. CHO-K1”, “Gaqi5” for “Gaqi5 (Coward P, et al., Analytical Biochemistry, 270:242-248 (1999))”, “performed.” for “performed. The resulting dose response curves are fit to a 4 parameter logistic equation and the final result is determined as the inflection point (IP) of the curve”

Row | EC50 [nM] | Compound
1 | 102 | CC1(C)NC(=O)c2cc(-c3nc(C#N)ccc3-c3cnn(CC4(F)CCCC4)c3)ccc21 [Example 46, 6-(1,1-dimethyl-3-oxoisoindolin-5-yl)-5-(1-((1-fluorocyclopentyl)methyl)-1H-pyrazol-4-yl)picolinonitrile49]
2 | 56 | N#Cc1ccc(-c2cnn(CC3(F)CCCC3)c2)c(-c2cnc3c(c2)C(=O)N(CCF)C3)n1 [Example 47, 5-(1-((1-fluorocyclopentyl)methyl)-1H-pyrazol-4-yl)-6-(6-(2-fluoroethyl)-5-oxo-6,7-dihydro-5H-pyrrolo[3,4-b]pyridin-3-yl)picolinonitrile]
3 | 41 | Cn1cc2ccc(-c3nc(C#N)ccc3-c3cnn(CC4(F)CCCC4)c3)cc2n1 [Example 48, 5-(1-((1-fluorocyclopentyl)methyl)-1H-pyrazol-4-yl)-6-(2-methyl-2H-indazol-6-yl)picolinonitrile]
4 | 107 | Cc1nc2cc(-c3nc(C#N)ccc3-c3cnn(CC4(F)CCCC4)c3)ccc2o1 [Example 49, 5-(1-((1-fluorocyclopentyl)methyl)-1H-pyrazol-4-yl)-6-(2-methylbenzo[d]oxazol-5-yl)picolinonitrile]
5 | 27 | N#Cc1ccc(-c2cnn(CC3(F)CCCC3)c2)c(-c2ccn3ccnc3c2)n1 [Example 50, 5-(1-((1-fluorocyclopentyl)methyl)-1H-pyrazol-4-yl)-6-(imidazo[1,2-a]pyridin-7-yl)picolinonitrile]
6 | 22 | N#Cc1ccc(-c2cnn(CC3(F)CCCC3)c2)c(-c2ccn3cc(C(F)(F)F)nc3c2)n1 [Example 51, 5-(1-((1-fluorocyclopentyl)methyl)-1H-pyrazol-4-yl)-6-(2-(trifluoromethyl)imidazo [1,2-a]pyridin-7-yl)picolinonitrile]
7 | 10 | N#Cc1ccc(-c2cnn(CC3(F)CCCC3)c2)c(-c2ccn3cc(Cl)nc3c2)n1 [Example 52, 6-(2-chloroimidazol[1,2-a]pyridin-7-yl)-5-(1-((1-fluorocyclopentyl)methyl)-1H-pyrazol-4-yl)picolinonitrile]
8 | 76 | N#Cc1ccc(-c2cnn(CC3(F)CCCC3)c2)c(-c2cnc3oc(C4CC4)nc3c2)n1 [Example 53, 6-(2-cyclopropyloxazolo[5,4-b]pyridin-6-yl)-5-(1-((1-fluorocyclopentyl)methyl)-1H-pyrazol-4-yl)picolinonitrile]
9 | 36 | N#Cc1ccc(-c2cnn(CC3(F)CCCC3)c2)c(-c2ccn3cc(C4CC4)nc3c2)n1 [Example 54, 6-(2-cyclopropylimidazo[1,2-a]pyridin-7-yl)-5-(1-((1-fluorocyclopentyl)methyl)-1H-pyrazol-4-yl)picolinonitrile]
10 | 35 | N#Cc1ccc(-c2cnn(CC3(F)CCCC3)c2)c(-c2cnc3c(c2)C(=O)N(CC2CC2)C3)n1 [Example 55, 6-(6-(cyclopropylmethyl)-5-oxo-6,7-dihydro-5H-pyrrolo[3,4-b]pyridin-3-yl)-5-(1-((1-fluorocyclopentyl)methyl)-1H-pyrazol-4-yl)picolinonitrile]
11 | 41 | Cn1nnc2cc(-c3nc(C#N)ccc3-c3cnn(CC4(F)CCCC4)c3)ccc21 [Example 56, 5-(1-((1-fluorocyclopentyl)methyl)-1H-pyrazol-4-yl)-6-(1-methyl-1H-benzo[1,2,3]triazol-5-yl)picolinonitrile]
12 | 16 | CCc1cn2ccc(-c3nc(C#N)ccc3-c3cnn(CC4(F)CCCC4)c3)cc2n1 [Example 57, 6-(2-ethylimidazo[1,2-a]pyridin-7-yl)-5-(1-((1-fluorocyclopentyl)methyl)-1H-pyrazol-4-yl)picolinonitrile]
13 | 15 | N#Cc1ccc(-c2cnn(CC3(F)CCCC3)c2)c(-c2ccn3cc(C(F)F)nc3c2)n1 [Example 58, 6-(2-(difluoromethyl)imidazo [1,2-a]pyridin-7-yl)-5-(1-((1-fluorocyclopentyl)methyl)-1H-pyrazol-4-yl)picolinonitrile]
14 | 43 | Cc1nc2cc(-c3nc(C#N)ccc3-c3cnn(CC4(F)CCCC4)c3)ccc2n1C [Example 59, 6-(1,2-dimethyl-1H-benzo[d]imidazol-5-yl)-5-(1-((1-fluorocyclopentyl)methyl)-1H-pyrazol-4-yl)picolinonitrile]
15 | 110 | Cc1nc2ccc(-c3nc(C#N)ccc3-c3cnn(CC4(F)CCCC4)c3)cn2n1 [Example 60, 5-(1-((1-fluorocyclopentyl)methyl)-1H-pyrazol-4-yl)-6-(2-methyl-[1,2,4]triazolo[1,5-a]pyridin-6-yl)picolinonitrile]
16 | 37 | Cc1nc2cc(-c3nc(C#N)ccc3-c3cnn(CC4(F)CCCC4)c3)ccn2n1 [Example 61, 5-(1-((1-fluorocyclopentyl)methyl)-1H-pyrazol-4-yl)-6-(2-methyl-[1,2,4]triazolo[1,5-a]pyridin-7-yl)picolinonitrile]
17 | 62 | N#Cc1ccc(-c2cnn(CC3(F)CCCC3)c2)c(-c2ccc3conc3c2)n1 [Example 62, 6-(benzo[c]isoxazol-6-yl)-5-(1-((1-fluorocyclopentyl)methyl)-1H-pyrazol-4-yl)picolinonitrile]
18 | 63 | Cc1nc2cc(-c3nc(C#N)ccc3-c3cnn(CC4(F)CCCC4)c3)cnc2n1C [Example 63, 6-(2,3-dimethyl-3H-imidazo[4,5-b]pyridin-6-yl)-5-(1-((1-fluorocyclopentyl)methyl)-1H-pyrazol-4-yl)picolinonitrile]
19 | 22 | COc1cc2ccc(-c3nc(C#N)ccc3-c3cnn(CC4(F)CCCC4)c3)cn2n1 [Example 64, 5-(1-((1-fluorocyclopentyl)methyl)-1H-pyrazol-4-yl)-6-(2-methoxypyrazolo[1,5-a]pyridin-6-yl)picolinonitrile]
20 | 28 | CCc1nc2cc(-c3nc(C#N)ccc3-c3cnn(CC4(F)CCCC4)c3)ccn2n1 [Example 65, 6-(2-ethyl-[1,2,4]triazolo[1,5-a]pyridin-7-yl)-5-(1-((1-fluorocyclopentyl)methyl)-1H-pyrazol-4-yl)picolinonitrile]
21 | 89 | N#Cc1ccc(-c2cnn(CC3(F)CCCC3)c2)c(-c2ccn3nc(CO)nc3c2)n1 [Example 66, 5-(1-((1-fluorocyclopentyl)methyl)-1H-pyrazol-4-yl)-6-(2-(hydroxymethyl)-[1,2,4]triazolo[1,5-a]pyridin-7-yl)picolinonitrile]
22 | 64 | COc1cc2ccc(-c3nc(C#N)ccc3-c3cnn(C[C@H]4CC[C@H](F)C4)c3)cc2nn1 [Example 67, 5-(1-(((1S,3S)-3-fluorocyclopentyl)methyl)-1H-pyrazol-4-yl)-6-(3-methoxycinnolin-7-yl)picolinonitrile]
23 | 38 | N#Cc1ccc(-c2cnn(C[C@H]3CC[C@H](F)C3)c2)c(-c2ccc3cccnc3c2)n1 [Example 68, 5-(1-(((1S,3S)-3-fluorocyclopentyl)methyl)-1H-pyrazol-4-yl)-6-(quinolin-7-yl)picolinonitrile]
24 | 25 | Cc1cn2ccc(-c3nc(C#N)ccc3-c3cnn(C[C@H]4CC[C@H](F)C4)c3)cc2n1 [Example 69, 5-(1-(((1S,3S)-3-fluorocyclopentyl)methyl)-1H-pyrazol-4-yl)-6-(2-methylimidazo[1,2-a]pyridin-7-yl)picolinonitrile]
25 | 49 | Cn1cnc2cc(-c3nc(C#N)ccc3-c3cnn(C[C@@H]4CC[C@@H](F)C4)c3)ccc21 [Example 70, 5-(1-(((1R,3R)-3-fluorocyclopentyl)methyl)-1H-pyrazol-4-yl)-6-(1-methyl-1H-benzo[d]imidazol-5-yl)picolinonitrile]
26 | 26 | N#Cc1ccc(-c2cnn(CC3C[C@H](F)[C@@H](F)C3)c2)c(-c2ccn3ccnc3c2)n1 [Example 71, 5-(1-(((3S,4S)-3,4-difluorocyclopentyl)methyl)-1H-pyrazol-4-yl)-6-(imidazo[1,2-a]pyridin-7-yl)picolinonitrile]
